Data from patent publication US9580435B2, “Pyrrolo[2,3-D]pyrimidine derivatives as CB2 receptor agonists” (priority 2013, dated 2017).
Where two headings read alike, the source gives them in different places.

Columns and labels:
[1] = molecular target: T1, human CB2 receptors (Homo sapiens, UniProt P34972); assay: functional cAMP assay, CHO cells expressing human CB2 receptors; format: cell-based
T1 construct: expressed in transfected cells; host or cells: CHO cells
Protocol: (§1) CHO cells expressing human CB1 or CB2 receptors are seeded 17-24 hours prior to the experiment 50.000 cells per well in a black 96 well plate with flat clear bottom (Corning Costar #3904) in DMEM (Invitrogen No. 31331), lx HT supplement, with 10% fetal calf serum and incubated at 5% CO2 and 37° C. in a humidified incubator. The growth medium was exchanged with Krebs Ringer Bicarbonate buffer with 1 mM IBMX and incubated at 30° C. for 30 min. Compounds were added to a final assay volume of 100 μl and incubated for 30 min at 30° C. Using the cAMP-Nano-TRF detection kit the assay (Roche Diagnostics) was stopped by the addition of 50 μl lysis reagent (Tris, NaCl, 1.5% Triton X100, 2.5% NP40, 10% NaN3) and 50 μl detection solutions (20 μM mAb Alexa700-cAMP 1:1, and 48 μM Ruthenium-2-AHA-cAMP) and shaken for 2 h at room temperature. The time-resolved energy transfer is measured by a TRF reader (Evotec Technologies GmbH), equipped with a ND:YAG laser as excitation source. The plate is measured twice with the excitation at 355 nm and at the emission with a delay of 100 ns and a gate of 100 ns, total exposure time 10 s at 730 (bandwidth 30 nm) or 645 nm (bandwidth 75 nm), respectively. The FRET signal is calculated as follows: FRET=T730-Alexa730-P(T645-B645) with P=Ru730-B730/Ru645-B645, where T730 is the test well measured at 730 nM, T645 is the test well measured at 645 nm, B730 and B645 are the buffer controls at 730 nm and 645 nm, respectively. cAMP content is determined from the function of a standard curve spanning from 10 μM to 0.13 nM cAMP.
(§2) EC50 values were determined using Activity Base analysis (ID Business Solution, Limited). The EC50 values for a wide range of cannabinoid agonists generated from this assay were in agreement with the values published in the scientific literature.

[2] = molecular target: T2, human CB1 receptors (Homo sapiens, UniProt P21554); assay: functional cAMP assay, CHO cells expressing human CB1 receptors; format: cell-based
T2 construct: expressed in transfected cells; host or cells: CHO cells
Protocol: as §1, §2

[3] = human EC50, functional cAMP assay, CHO cells expressing human CB2, read-out: EC50:CB2

T1 sequence (P34972 whole entry): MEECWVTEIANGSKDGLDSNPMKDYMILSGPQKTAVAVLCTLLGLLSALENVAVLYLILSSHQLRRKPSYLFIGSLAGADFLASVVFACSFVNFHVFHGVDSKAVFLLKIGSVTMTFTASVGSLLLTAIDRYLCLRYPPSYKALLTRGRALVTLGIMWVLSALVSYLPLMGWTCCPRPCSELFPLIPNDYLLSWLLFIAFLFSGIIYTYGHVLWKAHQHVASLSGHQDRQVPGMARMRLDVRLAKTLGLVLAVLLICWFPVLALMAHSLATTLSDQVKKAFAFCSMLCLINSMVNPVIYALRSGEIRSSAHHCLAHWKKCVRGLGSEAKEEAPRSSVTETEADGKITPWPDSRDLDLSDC
T2 sequence (P21554 whole entry): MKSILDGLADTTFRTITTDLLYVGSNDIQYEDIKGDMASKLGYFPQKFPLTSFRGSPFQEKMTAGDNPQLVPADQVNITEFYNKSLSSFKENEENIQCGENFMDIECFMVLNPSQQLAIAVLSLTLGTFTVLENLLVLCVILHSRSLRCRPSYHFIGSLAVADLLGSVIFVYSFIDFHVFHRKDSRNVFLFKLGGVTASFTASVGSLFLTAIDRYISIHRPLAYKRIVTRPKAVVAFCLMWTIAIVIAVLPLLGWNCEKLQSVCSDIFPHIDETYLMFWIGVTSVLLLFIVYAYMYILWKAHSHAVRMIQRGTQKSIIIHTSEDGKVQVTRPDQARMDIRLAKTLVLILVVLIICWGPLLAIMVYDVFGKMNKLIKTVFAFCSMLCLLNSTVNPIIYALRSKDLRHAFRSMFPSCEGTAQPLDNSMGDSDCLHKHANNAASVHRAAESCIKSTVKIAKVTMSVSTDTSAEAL

Row | SMILES | EC50 [1] [nM] | EC50 [2] [nM] | EC50 [1, 3] [nM]
1 | CC(C)(C)c1nc(N2CCC(F)(F)C2)c2ccn(Cc3ccccc3Cl)c2n1 [Example 1, 2-tert-butyl-7-[(2-chlorophenyl)methyl]-4-(3,3-difluoropyrrolidin-1-yl)pyrrolo[2,3-d]pyrimidine] | 10.1 | > 10000 | –
2 | CC(C)(C)c1nc(N2CCC(F)(F)C2)c2ccn(Cc3ccc(F)cc3Cl)c2n1 [Example 2, 2-tert-butyl-7-[(2-chloro-4-fluorophenyl)methyl]-4-(3,3-difluoropyrrolidin-1-yl)pyrrolo[2,3-d]pyrimidine] | 26.5 | > 10000 | –
3 | CC(C)(C)c1nc(N2CCC(F)(F)C2)c2ccn(Cc3ccccc3S(C)(=O)=O)c2n1 [Example 3, 2-tert-butyl-4-(3,3-difluoropyrrolidin-1-yl)-7-[(2-methylsulfonylphenyl)methyl]pyrrolo[2,3-d]pyrimidine] | 11.6 | > 10000 | –
4 | CC(C)(C)c1nc(N2CCC(F)(F)C2)c2ccn(Cc3ccccc3C(F)(F)F)c2n1 [Example 4, 2-tert-butyl-4-(3,3-difluoropyrrolidin-1-yl)-7-[[2-(trifluoromethyl)phenyl]methyl]pyrrolo[2,3-d]pyrimidine] | 7.4 | > 10000 | –
5 | CC(C)(C)c1nc(N2CCC(F)(F)C2)c2ccn(Cc3cccc(Cl)c3Cl)c2n1 [Example 5, 2-tert-butyl-7-[(2,3-dichlorophenyl)methyl]-4-(3,3-difluoropyrrolidin-1-yl) pyrrolo[2,3-d]pyrimidine] | 12.5 | > 10000 | –
6 | CC(C)(C)c1nc(N2CCC(F)(F)C2)c2ccn(Cc3cccnc3Cl)c2n1 [Example 6, 2-tert-butyl-7-[(2-chloropyridin-3-yl)methyl]-4-(3,3-difluoropyrrolidin-1-yl)pyrrolo[2,3-d]pyrimidine] | 12 | > 10000 | –
7 | CC(C)(C)c1nc(N2CCC(F)(F)C2)c2ccn(Cc3ncccc3Cl)c2n1 [Example 7, 2-tert-butyl-7-[(3-chloropyridin-2-yl)methyl]-4-(3,3-difluoropyrrolidin-1-yl)pyrrolo[2,3-d]pyrimidine] | 4.2 | > 10000 | –
8 | Cc1noc(Cn2ccc3c(N4CCC(F)(F)C4)nc(C(C)(C)C)nc32)n1 [Example 8, 5-[[2-tert-butyl-4-(3,3-difluoropyrrolidin-1-yl)pyrrolo[2,3-d]pyrimidin-7-yl]methyl]-3-methyl-1,2,4-oxadiazole] | 49.6 | > 10000 | –
9 | Cc1nonc1Cn1ccc2c(N3CCC(F)(F)C3)nc(C(C)(C)C)nc21 [Example 9, 3-[[2-tert-butyl-4-(3,3-difluoropyrrolidin-1-yl)pyrrolo[2,3-d]pyrimidin-7-yl]methyl]-4-methyl-1,2,5-oxadiazole] | 9.5 | > 10000 | –
10 | Cc1nnc(Cn2ccc3c(N4CCC(F)(F)C4)nc(C(C)(C)C)nc32)o1 [Example 10, 2-[[2-tert-butyl-4-(3,3-difluoropyrrolidin-1-yl)pyrrolo[2,3-d]pyrimidin-7-yl]methyl]-5-methyl-1,3,4-oxadiazole] | 29.6 | > 10000 | –
11 | Cc1nnc(Cn2ccc3c(N4CCC(F)(F)C4)nc(C(C)(C)C)nc32)n1C [Example 11, 2-tert-butyl-4-(3,3-difluoropyrrolidin-1-yl)-7-[(4,5-dimethyl-1,2,4-triazol-3-yl)methyl]pyrrolo[2,3-d]pyrimidine] | 30.8 | > 10000 | –
12 | Cn1nnnc1Cn1ccc2c(N3CCC(F)(F)C3)nc(C(C)(C)C)nc21 [Example 12, 2-tert-butyl-4-(3,3-difluoropyrrolidin-1-yl)-7-[(1-methyltetrazol-5-yl)methyl]pyrrolo[2,3-d]pyrimidine] | 14 | > 10000 | –
13 | CC(C)(C)c1nc(N2CCC(F)(F)C2)c2ccn(Cc3nnnn3C3CC3)c2n1 [Example 13, 2-tert-butyl-7-[(1-cyclopropyltetrazol-5-yl)methyl]-4-(3,3-difluoropyrrolidin-1-yl)pyrrolo[2,3-d]pyrimidine] | 23 | > 10000 | –
14 | CC(C)(C)c1nc(N2CC3(COC3)C2)c2ccn(Cc3ccccc3Cl)c2n1 [Example 14, 6-[2-tert-butyl-7-[(2-chlorophenyl)methyl]pyrrolo[2,3-d]pyrimidin-4-yl]-2-oxa-6-azaspiro[3.3]heptane] | 15.3 | > 10000 | –
15 | Cc1noc(Cn2ccc3c(N4CC5(COC5)C4)nc(C(C)(C)C)nc32)n1 [Example 15, 6-[2-tert-butyl-7-[(3-methyl-1,2,4-oxadiazol-5-yl)methyl]pyrrolo[2,3-d]pyrimidin-4-yl]-2-oxa-6-azaspiro[3.3]heptane] | – | > 10000 | 747
16 | CC(C)(C)c1nc(N2CC3(COC3)C2)c2ccn([C@H]3CCOC3)c2n1 [Example 16, 6-[2-tert-butyl-7-[(3S)-oxolan-3-yl]pyrrolo[2,3-d]pyrimidin-4-yl]-2-oxa-6-azaspiro[3.3]heptane] | 78.7 | > 10000 | –
17 | CC(C)(C)c1nc(N2CC3(COC3)C2)c2ccn([C@@H]3CCOC3)c2n1 [Example 17, 6-[2-tert-butyl-7-[(3R)-oxolan-3-yl]pyrrolo[2,3-d]pyrimidin-4-yl]-2-oxa-6-azaspiro[3.3]heptane] | 61.8 | > 10000 | –
18 | CC(C)(C)c1nc(N2CC3(COC3)C2)c2ccn(Cc3ccc(F)cc3Cl)c2n1 [Example 18, 6-[2-tert-butyl-7-[(2-chloro-4-fluorophenyl)methyl]pyrrolo[2,3-d]pyrimidin-4-yl]-2-oxa-6-azaspiro[3.3]heptane] | 42.5 | > 10000 | –
19 | CC(C)(C)c1nc(N2CC3(COC3)C2)c2ccn(Cc3ccccc3S(C)(=O)=O)c2n1 [Example 19, 6-[2-tert-butyl-7-[(2-methylsulfonylphenyl)methyl]pyrrolo[2,3-d]pyrimidin-4-yl]-2-oxa-6-azaspiro[3.3]heptane] | 14.6 | > 10000 | –
20 | CC(C)(C)c1nc(N2CC3(COC3)C2)c2ccn(Cc3cccnc3Cl)c2n1 [Example 20, 6-[2-tert-butyl-7-[(2-chloropyridin-3-yl)methyl]pyrrolo[2,3-d]pyrimidin-4-yl]-2-oxa-6-azaspiro[3.3]heptane] | 24.2 | > 10000 | –
21 | CC(C)(C)c1nc(N2CC3(COC3)C2)c2ccn(Cc3cccc(Cl)c3Cl)c2n1 [Example 21, 6-[2-tert-butyl-7-[(2,3-dichlorophenyl)methyl]pyrrolo[2,3-d]pyrimidin-4-yl]-2-oxa-6-azaspiro[3.3]heptane] | 91.4 | > 10000 | –
22 | Cc1nonc1Cn1ccc2c(N3CC4(COC4)C3)nc(C(C)(C)C)nc21 [Example 22, 6-[2-tert-butyl-7-[(4-methyl-1,2,5-oxadiazol-3-yl)methyl]pyrrolo[2,3-d]pyrimidin-4-yl]-2-oxa-6-azaspiro[3.3]heptane] | 48.4 | > 10000 | –
23 | Cc1nnc(Cn2ccc3c(N4CC5(COC5)C4)nc(C(C)(C)C)nc32)o1 [Example 23, 6-[2-tert-butyl-7-[(5-methyl-1,3,4-oxadiazol-2-yl)methyl]pyrrolo[2,3-d]pyrimidin-4-yl]-2-oxa-6-azaspiro[3.3]heptane] | – | > 10000 | 468
24 | CC(C)(C)c1nc(N2CCC(O)C2)c2ccn(Cc3ccccc3Cl)c2n1 (stereo not shown) [Example 24, 1-[2-tert-butyl-7-[(2-chlorophenyl)methyl]pyrrolo[2,3-d]pyrimidin-4-yl]pyrrolidin-3-ol] | – | > 10000 | 411
25 | CC(C)(C)c1nc(N2CCC(O)C2)c2ccn(Cc3ccc(F)cc3Cl)c2n1 (stereo not shown) [Example 25, 1-[2-tert-butyl-7-[(2-chloro-4-fluorophenyl)methyl]pyrrolo[2,3-d]pyrimidin-4-yl]pyrrolidin-3-ol] | 10.2 | 895 | –
26 | CC(C)(C)c1nc(N2CCC(O)C2)c2ccn(Cc3ccccc3S(C)(=O)=O)c2n1 (stereo not shown) [Example 26, 1-[2-tert-butyl-7-[(2-methylsulfonylphenyl)methyl]pyrrolo[2,3-d]pyrimidin-4-yl]pyrrolidin-3-ol] | 16.8 | > 10000 | –
27 | CC(C)(C)c1nc(N2CCC(O)C2)c2ccn(Cc3ccccc3C(F)(F)F)c2n1 (stereo not shown) [Example 27, 1-[2-tert-butyl-7-[[2-(trifluoromethyl)phenyl]methyl]pyrrolo[2,3-d]pyrimidin-4-yl]pyrrolidin-3-ol] | 6.9 | > 10000 | –
28 | CC(C)(C)c1nc(N2CCC(O)C2)c2ccn(Cc3cccc(Cl)c3Cl)c2n1 (stereo not shown) [Example 28, 1-[2-tert-butyl-7-[(2,3-dichlorophenyl)methyl]pyrrolo[2,3-d]pyrimidin-4-yl]pyrrolidin-3-ol] | 14 | > 10000 | –
29 | CC(C)(C)c1nc(N2CCC(O)C2)c2ccn(Cc3cccnc3Cl)c2n1 (stereo not shown) [Example 29, 1-[2-tert-butyl-7-[(2-chloropyridin-3-yl)methyl]pyrrolo[2,3-d]pyrimidin-4-yl]pyrrolidin-3-ol] | 3.6 | > 10000 | –
